These results are taken from publication PMC3380172 (Journal of the American Chemical Society, 2012).

Structures are written as SMILES. Like-named read-outs stand apart in the source and are kept apart here.

For experiment [1], the target named is T1, L232A mutant TbbTIM (Trypanosoma brucei brucei, UniProt P04789, L232A). Briefly: Reaction of [1-13C]-GA in D2O with and without phosphite dianion, 1H NMR. Type of experiment: biochemical. Conditions: for Average product yield (mole fraction), phosphite dianion-activated reaction: 20 mM [1-13C]-GA, D2O, pD 7.0, I = 0.1, 25 °C, average over [HPO3^2-].
For experiment [2], the target named is T2, I172V mutant TbbTIM (Trypanosoma brucei brucei, UniProt P04789, I172V). The description is as above. Type of experiment: biochemical. Conditions: for Average product yield (mole fraction), phosphite dianion-activated reaction / Fractional yield from reaction at the enzyme active site: 20 mM [1-13C]-GA, D2O; for Average product yield (mole fraction), phosphite dianion-activated reaction: pD 7.0, I = 0.1, 25 °C, average over [HPO3^2-]; for Fractional yield from reaction at the enzyme active site: value in parenthesis, [HPO3^2-] 0 mM, pD 7.0, 25 °C.

For experiment [3], the target named is T3, I172A mutant TbbTIM (Trypanosoma brucei brucei, UniProt P04789, I172A). The description is as above. Type of experiment: biochemical. As to conditions: for Average product yield (mole fraction), phosphite dianion-activated reaction: 20 mM [1-13C]-GA, D2O, pD 7.0, I = 0.1, 25 °C, average over [HPO3^2-].
In experiment [4] the target is T1, L232A mutant TbbTIM. Type of experiment: biochemical. As to conditions: for Fractional Product Yield fE: fraction of the three TIM-catalyzed products, 5 mM GAP, 3.4 nM L232A, D2O.
Experiment [5] concerns the target T3, I172A mutant TbbTIM. Type of experiment: biochemical. Conditions: for Fractional Product Yield fE: fraction of the three TIM-catalyzed products, 5 mM GAP, 65 nM I172A, D2O.
In experiment [6] the target is T3, I172A mutant TbbTIM. In words: TIM-catalyzed isomerization of DHAP and arsenate inhibition. Type of experiment: biochemical. As to conditions: 30 mM TEA, pH 7.5, 25 °C, I = 0.1 (NaCl).
Experiment [7] concerns WT chicken TIM. Conditions: cited from earlier work.
The subject of experiment [8] is E165D chicken TIM. As to conditions: cited from earlier work.
The test system of experiment [9] is wildtype TbbTIM. Conditions: cited from earlier work.
In experiment [10] the target is T2, I172V mutant TbbTIM. Briefly: TIM-catalyzed isomerization of DHAP and arsenate inhibition. Type of experiment: biochemical. As to conditions: 30 mM TEA, pH 7.5, 25 °C, I = 0.1 (NaCl).
For experiment [11], the target named is T1, L232A mutant TbbTIM. Conditions: 30 mM TEA, pH 7.5, 25 °C, I = 0.1 (NaCl), cited from earlier work.
Experiment [12] has as its system E165D/S96P chicken TIM. As to conditions: cited from earlier work.
Experiment [13] relates to WT chicken TIM. Conditions: cited from earlier work. This is another data set of the same source.
In experiment [14] the target is T2, I172V mutant TbbTIM. In words: TIM-catalyzed isomerization of GAP. As to conditions: 30 mM TEA, pH 7.5, 25 °C, I = 0.1 (NaCl). Type of experiment: biochemical.
For experiment [15], the system named is E165D/S96P chicken TIM. As to conditions: cited from earlier work. The source holds these as a separate data set.
Experiment [16] deals with E165D chicken TIM. Conditions: cited from earlier work. This is another data set of the same source.
Experiment [17] deals with T3, I172A mutant TbbTIM. In words: TIM-catalyzed isomerization of GAP. Type of experiment: biochemical. Conditions: 30 mM TEA, pH 7.5, 25 °C, I = 0.1 (NaCl).
Experiment [18] deals with wildtype TbbTIM. Type of experiment: biochemical, Trypanosoma brucei brucei. As to conditions: reaction of GAP in D2O, pD 7.9, 25 °C; from product yields.
Experiment [19] deals with wildtype TbbTIM. Conditions: 30 mM TEA, pH 7.5, 25 °C, I = 0.1 (NaCl), cited from earlier work.
The target of experiment [20] is T1, L232A mutant TbbTIM. Conditions: 30 mM TEA, pH 7.5, 25 °C, I = 0.1 (NaCl), cited from earlier work. The source holds these as a separate data set.
The mark [21] stands for this setting: unactivated reaction of [1-13C]-GA in D2O (no HPO3^2-).
[22] abbreviates: isomerization of [1-13C]-GA in D2O.
The mark [23] stands for this setting: isomerization of GAP in D2O with intramolecular transfer of hydrogen.
[24] abbreviates: reaction of GAP in D2O, pD 7.9, 25 °C, from product yields.
[25] abbreviates: read-out: Ki (arsenate), inhibition of DHAP isomerization.

With `[2H]C(O)[13CH]=O` (stereo not drawn) [[1-^13C, 2-^2H]-GA], the figures for the “Average product yield (mole fraction), phosphite dianion-activated reaction” value (shortened to “Average product yield (mole fraction)”) at L232A mutant TbbTIM [1], at I172V mutant TbbTIM [2] and on I172A mutant TbbTIM [3] were 0.51 ± 0.02, 0.24 ± 0.02 and 0.30 ± 0.02, respectively. Also, the “Fractional yield from reaction at the enzyme active site” value (shortened to “Fractional yield from reaction”) at I172V mutant TbbTIM [2] worked out at 0.55. Moreover, the yield of product at I172A mutant TbbTIM [3] (setting [21]) is 15%.

With `[2H]C([2H])(O)[13CH]=O` [[1-^13C, 2,2-di-^2H]-GA], the yield of product on I172V mutant TbbTIM [2] (reaction of [1-13C]-GA in D2O in the absence of HPO3^2-) was 25%; at I172A mutant TbbTIM [3] (setting [21]), 38%.

Take `[2H]C(O)C(=O)COP(=O)(O)O` (stereo not drawn) [d-DHAP]: the “Fractional Product Yield fE” value is 0.86 on L232A mutant TbbTIM [4] (pD 7.9, 25 °C) and 0.37 at I172A mutant TbbTIM [5] (pD 7.9, 25 °C).

As to `O=C[13CH2]O` [[2-^13C]-GA], the “Average product yield (mole fraction)” value on L232A mutant TbbTIM [1] is 0.01 ± 0.001; at I172V mutant TbbTIM [2], 0.13 ± 0.01; at I172A mutant TbbTIM [3] it was 0.02 ± 0.001. Further, the yield of product is 1% on L232A mutant TbbTIM [1] (setting [22]) and 2% at I172A mutant TbbTIM [3] (setting [22]). Moreover, on I172V mutant TbbTIM [2], the “Fractional yield from reaction” value is on record as 0.04.

Turning to `O=C(CO)COP(=O)(O)O` [DHAP, dihydroxyacetone phosphate], the “kcat (DHAP)” value on I172A mutant TbbTIM [6] is 17 s⁻¹; in the experiment with WT chicken TIM [7] it was 600 s⁻¹; in the experiment on E165D chicken TIM [8] it was 4.1 s⁻¹; in the experiment with wildtype TbbTIM [9] (30 mM TEA, pH 7.5, 25 °C, I = 0.1 (NaCl)) it was 300 s⁻¹; on I172V mutant TbbTIM [10], 65 s⁻¹; on L232A mutant TbbTIM [11] it was 4.7 s⁻¹. For the same compound, the “kcat (DHAP)” value in the experiment on E165D/S96P chicken TIM [12] is 3.4 s⁻¹. The Km at I172A mutant TbbTIM [6] (read-out: Km (DHAP)) was 3700 µM; with WT chicken TIM [7] (read-out: Km (DHAP)), 650 µM; in the experiment with E165D chicken TIM [8] (read-out: Km (DHAP)), 1200 µM; in the experiment on wildtype TbbTIM [9] (read-out: Km (DHAP), 30 mM TEA, pH 7.5, 25 °C, I = 0.1 (NaCl)), 700 µM; at I172V mutant TbbTIM [10] (read-out: Km (DHAP)), 200 µM; at L232A mutant TbbTIM [11] (read-out: Km (DHAP)), 77 µM. Further, the Km in the experiment on E165D/S96P chicken TIM [12] (read-out: Km (DHAP)) is 53 µM. Also, the “Fractional Product Yield fE” value amounted to 0.041 at L232A mutant TbbTIM [4] (pD 7.9, 25 °C) and 0.13 on I172A mutant TbbTIM [5] (pD 7.9, 25 °C). The yield of product at L232A mutant TbbTIM [4] (setting [23]) is listed as 4%; at I172A mutant TbbTIM [5] (setting [23]) it was 13%.

In the case of `[2H][13CH](O)C=O` (stereo not drawn) [[2-^13C, 2-^2H]-GA], the figures for the “Average product yield (mole fraction)” value at L232A mutant TbbTIM [1], on I172V mutant TbbTIM [2] and at I172A mutant TbbTIM [3] were 0.48 ± 0.02, 0.63 ± 0.01 and 0.25 ± 0.02, respectively. On I172V mutant TbbTIM [2], the “Fractional yield from reaction” value came out at 0.40.

Turning to `O=C[C@H](O)COP(=O)(O)O` [d-GAP], the “Fractional Product Yield fE” value on L232A mutant TbbTIM [4] (pD 7.9, 25 °C) is given as 0.098; at I172A mutant TbbTIM [5] (pD 7.9, 25 °C) it was 0.50.

Take `O=C[C@H](O)COP(=O)(O)O` [GAP, R-glyceraldehyde 3-phosphate]: the “kcat (GAP)” value in the experiment with WT chicken TIM [13] was 8300 s⁻¹; on I172V mutant TbbTIM [14], 225 s⁻¹; in the experiment with E165D/S96P chicken TIM [15], 68 s⁻¹; with E165D chicken TIM [16], 4.2 s⁻¹; on I172A mutant TbbTIM [17], 12 s⁻¹; in the experiment on wildtype TbbTIM [19], 2100 s⁻¹. For the same compound, at L232A mutant TbbTIM [20], the “kcat (GAP)” value was 220 s⁻¹. Also, the Km was 420 µM in the experiment with WT chicken TIM [13] (read-out: Km (GAP)); 58 µM on I172V mutant TbbTIM [14] (read-out: Km (GAP)); 66 µM in the experiment with E165D/S96P chicken TIM [15] (read-out: Km (GAP)); 78 µM in the experiment with E165D chicken TIM [16] (read-out: Km (GAP)); 150 µM at I172A mutant TbbTIM [17] (read-out: Km (GAP)); 250 µM in the experiment with wildtype TbbTIM [19] (read-out: Km (GAP)). The Michaelis constant (Km) at L232A mutant TbbTIM [20] (read-out: Km (GAP)) was 140 µM. The “Rate Constant Ratio (kC1)D/(kC2)D” value on L232A mutant TbbTIM [4] (setting [24]) amounted to 8.8; in the experiment on wildtype TbbTIM [18] it was 1.7; at I172A mutant TbbTIM [5] (setting [24]), 0.74. Moreover, the “Rate Constant Ratio kex/(kC1)H” value came out at 23 on L232A mutant TbbTIM [4] (setting [24]), 1.5 in the experiment with wildtype TbbTIM [18] and 6.7 at I172A mutant TbbTIM [5] (setting [24]).

With `O=[As](O)(O)O` [arsenate, arsenate dianion, reference compound], the Ki is 11 mM on WT chicken TIM [7] (setting [25]); 12 mM on E165D chicken TIM [8] (setting [25]); 4.6 mM at wildtype TbbTIM [9] (read-out: Ki (competitive inhibitor), arsenate dianion, competitive); 2.1 mM at E165D/S96P chicken TIM [12] (setting [25]).

What is called Km is the concentration of substrate that gives half-maximal velocity. A word on the Ki: it is a measure of affinity in units of concentration, obtained from inhibition or displacement.
